Measured values: paper PMC13342644, “Structural basis for transport and inhibition of nucleotide sugar transport in pathogenic fungi” (Nature Communications, 2026)

Columns and labels:
Vrg4 liposomes = type: biochemical; conditions: liposome assays, GDP-mannose versus GMP as antiport substrate
[1] = system: NDY5 yeast containing an empty yEP181 vector; assay: Hygromycin B-based in vivo viability (growth) assay; type: cell-based, Saccharomyces cerevisiae
Procedure: The yeast was grown in minimal media to select for the plasmids, and the expression of the nanobody was induced with galactose. After overnight galactose induction, the yeast culture was diluted, and growth was monitored over 30 h.
An overnight culture was grown in minus -Leu-Ura medium containing 2% glucose and then diluted 1:10 into medium containing 2% lactate. After 9 h of growth, 2% galactose was added, and the cultures were left overnight. […] The cultures were grown at 30 °C with shaking, and growth was monitored over the next 30 h by measuring the OD.

SMILES | Transport rate as antiport substrate, in words (Vrg4 liposomes) | Growth / sensitivity to hygromycin B, in words [1]
Nc1nc2c(ncn2[C@@H]2O[C@H](COP(=O)(O)OP(=O)(O)O[C@H]3O[C@H](CO)[C@@H](O)[C@H](O)[C@@H]3O)[C@@H](O)[C@H]2O)c(=O)[nH]1 [GDP-mannose] | faster transport rates and greater overall uptake | 
CN[C@H]1C[C@@H](N)[C@H](O)[C@@H](O[C@@H]2O[C@H](CO)[C@H](O)[C@@H]3OC4(O[C@H]23)O[C@H]([C@@H](N)CO)[C@H](O)[C@H](O)[C@H]4O)[C@@H]1O (some centres unmarked) [hygromycin B] |  | sensitive
